Patent publication US6069165A, “Pharmaceutical compositions containing amisulpride and their therapeutic applications” (Synthelabo, priority 1996, dated 2000)

Assay: Bioavailability of amisulpride administered by the oral route
Conditions: in vivo, conventional amisulpride, of the order of

A bioavailability of 35 to 45% was found for `CCN1CCCC1CNC(=O)c1cc(S(=O)(=O)CC)c(N)cc1OC` (stereo not shown) [amisulpride, 4-amino-N-[(1-ethylpyrrolidin-2-yl)methyl]-5-(ethylsulphonyl)-2-methoxybenzamide] in this work.
